# Experiments:
# Assay type in all cases: cell-based, human
# U-2 OS cells [1] = test: Western blot analysis of p53, p21 expression; conditions: 24 hours, (R)-5a effect at 5 and 10 μM
# U-2 OS cells [2] = test: Caspase 3/7 activity assay; conditions: 24 or 48 hours
# SJSA-1 cells = test: Caspase 3/7 activity assay; conditions: SJSA-1, 24 or 48 hours
# U-2 OS cells [3] = test: Real-time PCR of p53-target genes; conditions: 6 hours, 10 μM (R)-5a, 5 μM RG7388, normalized to GAPDH
# U-2 OS cells [4] = test: Cell cycle analysis; conditions: 24 hours, 5 μM, control 55%
smiles,measurement,setting,value
COc1ccc(C2=N[C@@H](c3ccc(Cl)cc3)[C@@H](c3ccc(Cl)cc3)N2C(=O)N2CCNC(=O)C2)c(OC(C)C)c1 [Nutlin-3],expression of p53 and p21 protein,U-2 OS cells [1],increased the expression of p21 and p53
"COc1cc(C(=O)O)ccc1NC(=O)[C@@H]1N[C@@H](CC(C)(C)C)[C@](C#N)(c2ccc(Cl)cc2F)[C@H]1c1cccc(Cl)c1F [RG7388, Idasanutlin]",induction of apoptosis (caspase 3/7 activity),U-2 OS cells [2],not in U-2 OS cells
same,induction of apoptosis (caspase 3/7 activity),SJSA-1 cells,induced apoptosis only in SJSA-1 cells
same,MDM2 and CDKN1A transcripts,U-2 OS cells [3],significant increase of MDM2 and CDKN1A transcripts
same,expression of p53 and p21 protein,U-2 OS cells [1],increased the expression of p21 and p53
same,percentage of S-phase cells,U-2 OS cells [4],0.5%
CN[C@@H]1C[C@H]2O[C@@](C)([C@@H]1OC)n1c3ccccc3c3c4c(c5c6ccccc6n2c5c31)C(=O)NC4 [Staurosporine],induction of apoptosis (caspase 3/7 activity),U-2 OS cells [2],induced apoptosis in both cell lines
same,induction of apoptosis (caspase 3/7 activity),SJSA-1 cells,induced apoptosis in both cell lines

# Reference: article PMC6634946 (The FEBS journal, 2019)
